Article PMC4926073, “Absorption and Transport of Sea Cucumber Saponins from Apostichopus japonicus” (Marine Drugs, 2016)
Read-outs that look alike come from different tables or passages of the source.

What was measured:
Caco-2 cell monolayer [1] = experiment: Transepithelial transport across Caco-2 cell monolayer
in vivo [2] = conditions: male, Wistar, rat, iv, 20 mg/kg
in vitro = conditions: human; for recovery: Caco-2, Recovery (AP + BL chambers + cell monolayer)
[3] = Single-pass intestinal perfusion in rats; conditions: for concentration-dependent changes in permeability: 1, 5, 25 μg/mL
Procedure: (§1) Data were expressed as the means ± SD of three determinations: Peff = −Q ln [Cout/Cin]/2πrl(2)
(§2) In which Cin is the inlet concentration and Cout is the outlet concentration of compound, which is corrected for volume change in the segment using phenol red concentration in the inlet and outlet tubing. Q is the flow rate (0.2 mL/min), r is the rat intestinal radius (0.18 cm), and l is the length of the segment [32].
(§3) The rats were anaesthetized with an intra-abdominal injection of 10% chloral hydrate at a dose of 5 mL/kg. The enterocoelia of the rat was dissected by a 3–4 cm midline length, a segment of intestine about 10 cm long was separated and washed with saline. Silicone tubing was inserted into both sides of the segment of intestine and a peristaltic pump was connected to the proximal side of the tube. A pledget with saline was added onto the surgical area to avoid loss of fluid. The segment was cleared with 37 °C saline firstly, then blank K-R buffer solution was infused at the inlet and blank perfusate was collected at the outlet. The segment was infused with perfusate containing phenol red and different concentrations of sea cucumber saponins (1, 5, and 25 μg/mL) at a flow rate of 2 mL/min. Then the rate was reduced to 0.2 mL/min for 30 min until steady-state. Samples were obtained from the outlet of the segment every 15 min and stored at −20 °C for analysis. Different concentrations of sea cucumber saponins were perfused to highlight the absorption mechanism of sea cucumber saponins, which were investigated by the concentration-dependent change of the permeability values. 400 μg/mL verapamil was added to the perfusion solution containing 5 μg/mL sea cucumber saponins and 20 μg/mL phenol red to investigate whether the intestinal absorption of sea cucumber saponins were affected by P-gp.

[4] = Freeze-thaw, short-term and long-term stability in perfusate (Krebs-Ringer buffer solution); conditions: for Short-Term Stability, Accuracy (%): ambient temperature 24 h; for Long-Term Stability, Accuracy (%): ambient temperature 5 d
Caco-2 cell monolayer [5] = conditions: human
[6] = Freeze-thaw, short-term and long-term stability in rat plasma; conditions: for Short-Term Stability, Accuracy (%): ambient temperature 24 h; for Long-Term Stability, Accuracy (%): ambient temperature 5 d
[7] = In vivo pharmacokinetics in rats after oral administration; conditions: 20 mg/kg
in vivo [8] = conditions: rat
Procedure: as §1, §2, §3

[9] = rat, in vivo, 20 mg/kg
[10] = rat
Procedure: as §1, §2, §3

[11] = rat; remark: listed apart in the source
[12] = nominal conc. 100.00 ng/mL, frozen at −20 °C 24 h, thawed at ambient temperature
[13] = range over freeze-thaw, short-term, long-term and both compounds

Question: Which results are given for CO[C@@H]1[C@@H](O)[C@H](O[C@@H]2[C@@H](O)[C@H](O[C@H]3[C@H](O)[C@@H](O)[C@H](O[C@H]4[C@H](O[C@H]5CC[C@]6(C)C7=C[C@H](O)[C@]89C(=O)O[C@@](C)(CCCC(C)C)[C@@]8(O)CC[C@@]9(C)C7CCC6C5(C)C)OC[C@@H](OS(=O)(=O)O)[C@@H]4O)O[C@@H]3C)O[C@H](CO)[C@H]2O)O[C@H](CO)[C@H]1O (stereo partly shown) [Echinoside A]?
Answer: AP Chamber (%) recovered (Caco-2 cell monolayer [1]; time 60 min): 82.14 ± 2.85%; BL Chamber (%) recovered (Caco-2 cell monolayer [1]; time 60 min): 1.04 ± 0.12%; Cell Fraction (%) recovered (Caco-2 cell monolayer [1]; time 60 min): 14.22 ± 1.14%; AP Chamber (%) recovered (Caco-2 cell monolayer [1]; time 90 min): 81.63 ± 2.04%; BL Chamber (%) recovered (Caco-2 cell monolayer [1]; time 90 min): 1.51 ± 0.11%; Cell Fraction (%) recovered (Caco-2 cell monolayer [1]; time 90 min): 15.05 ± 1.29%; AP Chamber (%) recovered (Caco-2 cell monolayer [1]; time 120 min): 80.25 ± 2.67%; BL Chamber (%) recovered (Caco-2 cell monolayer [1]; time 120 min): 1.90 ± 0.20%; Cell Fraction (%) recovered (Caco-2 cell monolayer [1]; time 120 min): 14.43 ± 1.24%; AP Chamber (%) recovered (Caco-2 cell monolayer [1]; time 150 min): 79.38 ± 2.21%; BL Chamber (%) recovered (Caco-2 cell monolayer [1]; time 150 min): 2.36 ± 0.21%; Cell Fraction (%) recovered (Caco-2 cell monolayer [1]; time 150 min): 14.78 ± 0.92%; transport mechanism across Caco-2 monolayer (Caco-2 cell monolayer [1]; with and without P-gp inhibitor verapamil 100 μM): transported by passive diffusion without the participation of P-gp; AUC (in vivo [2]): 16400 ± 450 ng·h/mL; Cmax (in vivo [2]): 4000 ± 440 ng/mL; Tmax (in vivo [2]): 4.8 min; half-life (in vivo [2]): 8.52 ± 0.32 h; Papp A→B (in vitro; Caco-2): 3.96 ± 0.55 ×10⁻⁶ cm/s; Papp B→A (in vitro; Caco-2): 5.38 ± 0.81 ×10⁻⁶ cm/s; recovery (in vitro; time 60 min): 97.4 ± 2.76%; recovery (in vitro; time 90 min): 98.2 ± 1.97%; recovery (in vitro; time 120 min): 96.6 ± 2.33%; recovery (in vitro; time 150 min): 96.5 ± 2.04%; concentration-dependent changes in permeability ([3]; rat single-pass intestinal perfusion): not found; change in permeability when verapamil was added to the perfusate ([3]; rat single-pass intestinal perfusion, verapamil 400 μg/mL): No significant increase; Papp ([3]; rat, other: single-pass intestinal perfusion): 25 ×10⁻⁶ cm/s; Short-Term Stability, Accuracy (%) ([4]; nominal conc. 100.00 ng/mL): 90.8%; Long-Term Stability, Accuracy (%) ([4]; nominal conc. 100.00 ng/mL): 89.2%; Freeze-Thaw Stability, Accuracy (%) [4, 12]: 91.6%; Freeze-Thaw Stability, Accuracy (%) ([4]; nominal conc. 1000.00 ng/mL): 91.9%; Short-Term Stability, Accuracy (%) ([4]; nominal conc. 1000.00 ng/mL): 91.3%; Long-Term Stability, Accuracy (%) ([4]; nominal conc. 1000.00 ng/mL): 92.6%; Freeze-Thaw Stability, Accuracy (%) ([4]; nominal conc. 5000.00 ng/mL): 93.5%; Short-Term Stability, Accuracy (%) ([4]; nominal conc. 5000.00 ng/mL): 94.4%; Long-Term Stability, Accuracy (%) ([4]; nominal conc. 5000.00 ng/mL): 91.1%; stability in perfusate under three conditions [4, 13]: 88.2%–94.8; Papp AP-BL (Caco-2 cell monolayer [5]): 4.04 ± 0.39 × 10^−6, cm·s^−1; Papp BL-AP (Caco-2 cell monolayer [5]): 5.33 ± 0.70 × 10^−6, cm·s^−1; Short-Term Stability, Accuracy (%) ([6]; nominal conc. 100.00 ng/mL): 95.4%; Long-Term Stability, Accuracy (%) ([6]; nominal conc. 100.00 ng/mL): 97.2%; Freeze-Thaw Stability, Accuracy (%) [6, 12]: 94.4%; Freeze-Thaw Stability, Accuracy (%) ([6]; nominal conc. 1000.00 ng/mL): 96.7%; Short-Term Stability, Accuracy (%) ([6]; nominal conc. 1000.00 ng/mL): 96.0%; Long-Term Stability, Accuracy (%) ([6]; nominal conc. 1000.00 ng/mL): 102.1%; Freeze-Thaw Stability, Accuracy (%) ([6]; nominal conc. 5000.00 ng/mL): 98.9%; Short-Term Stability, Accuracy (%) ([6]; nominal conc. 5000.00 ng/mL): 102.4%; Long-Term Stability, Accuracy (%) ([6]; nominal conc. 5000.00 ng/mL): 100.3%; stability in plasma under three conditions [6, 13]: 93.4%–102.4; bioavailability ([7]; male, Wistar, rat, in vivo): 59%; AUC ([7]; male, Wistar, rat, in vivo, po): 9270 ± 390 ng·h/mL; Cmax ([7]; male, Wistar, rat, in vivo, po): 910 ± 20 ng/mL; half-life ([7]; male, Wistar, rat, in vivo, po, T1/2, rat): 6.99 h; Tmax ([7]; male, Wistar, rat, in vivo, po, Tmax): ≤ 3 h; time at which detected in rat plasma after oral administration ([7]; oral): 1 h; T1/2 ([7]; rat, oral): 6.9 ± 0.32 h; max value of the concentration in the plasma ([7]; rat, oral): 910 ng/mL

Question: With C=C(C)CCCC1(C)OC(=O)C23CC=C4C(CCC5C4(C)CCC(OC4OCC(OC6OC(CO)C(O)C(OC7OC(CO)C(O)C(OC)C7O)C6O)C(O)C4OC4OC(C)C(OC6OCC(O)C(OC7OC(CO)C(O)C(OC)C7O)C6O)C(O)C4O)C5(C)C)C2(C)CC(=O)C13 (stereo not shown) [Holotoxin A1] as the compound, how does the “AP Chamber (%) recovered” value (Caco-2 cell monolayer [1]; time 60 min) read?
Answer: The value was 97.66 ± 2.02%.

Question: What about the “AP Chamber (%) recovered” value (Caco-2 cell monolayer [1]; time 90 min) of the same compound?
Answer: Its value is 96.56 ± 1.89%.

Question: What about the “AP Chamber (%) recovered” value (Caco-2 cell monolayer [1]; time 120 min) of the same compound?
Answer: Its value is 95.46 ± 1.72%.

Question: And the “AP Chamber (%) recovered” value (Caco-2 cell monolayer [1]; time 150 min)?
Answer: The value was 95.90 ± 2.27%.

Question: What about the “BL Chamber (%) recovered” value (Caco-2 cell monolayer [1]; time 150 min) of the same compound?
Answer: The value was under 0.2%.

Question: And the “Cell Fraction (%) recovered” value (Caco-2 cell monolayer [1]; time 150 min)?
Answer: Its value is under 0.2%.

Question: And the AUC (in vivo [2])?
Answer: Its AUC is 6530 ± 150 ng·h/mL.

Question: And the Cmax (in vivo [2])?
Answer: Its Cmax is 2870 ± 170 ng/mL.

Question: And the Tmax (in vivo [2])?
Answer: Its Tmax is 4.8 min.

Question: And the half-life (in vivo [2])?
Answer: The half-life was 4.4 ± 0.06 h.

Question: What about the Papp (in vivo [8]) of the same compound?
Answer: Its Papp is 2.67 ×10⁻⁶ cm/s.

Question: What about the “detection in the plasma after oral administration” value [9] of the same compound?
Answer: Its value is “not detected”.

Question: And the “change in permeability when verapamil was added to the perfusate” value [10]?
Answer: Its value is “No significant increase”.

Question: And the Papp A→B (in vitro; Caco-2)?
Answer: The Papp A→B was under 0.83 ×10⁻⁶ cm/s.

Question: What about the Papp B→A (in vitro; Caco-2) of the same compound?
Answer: Its Papp B→A is under 0.83 ×10⁻⁶ cm/s.

Question: And the “concentration-dependent changes in permeability” value [3]?
Answer: Its value is “not found”.

Question: What about the “Papp AP-BL” value (Caco-2 cell monolayer [5]) of the same compound?
Answer: Its value is <0.83 × 10^−6, cm·s^−1.

Question: What about the “PappAB (Papp AP to BL)” value (Caco-2 cell monolayer [5]) of the same compound?
Answer: The value was “less than 0.83 × 10^−6 cm·s^−1”.

Question: What about the “stability in plasma under three conditions” value [11] of the same compound?
Answer: The value was 93.4%–102.4.

Question: With CC(C)NCC(O)COc1cccc2ccccc12 (stereo not shown) [propranolol, reference compound] as the compound, how does the Papp A→B at 150 min, 20 µM (in vitro; Caco-2) read?
Answer: The Papp A→B at 150 min, 20 µM was 26.1 ± 1.2 ×10⁻⁶ cm/s.
